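Step 1: Grow cells in 96-well plates. Step 2: Expose to compound for 48 hours at 5 concentrations. Step 3: Interpolate endpoints linearly; if unreached, use highest concentration. GI50 is the concentration that inhibits growth by half.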 Active and inactive are the calls of the source. No stated cut-off is given here; in the data, active = GI50 up to about 1.1 µM and inactive = higher.
Columns and labels:
Assay in all cases: DTP human tumour cell line panel, 48 h
RXF 631 = test system: RXF 631
XF498 = test system: XF498
LXFL 529 = test system: LXFL 529
DMS-114 = test system: DMS-114
DMS-273 = test system: DMS-273
DLD-1 = test system: DLD-1
KM-20L2 = test system: KM-20L2
M19-MEL = test system: M19-MEL

Measured: GI50

C=C1CCCC2OC(OC)CCC12 (stereo not drawn)
inactive: RXF 631 > 100 µM | XF498 > 100 µM | LXFL 529 > 100 µM | DMS-114 > 100 µM | DMS-273 > 100 µM | DLD-1 > 100 µM | KM-20L2 > 100 µM | M19-MEL > 100 µM

Reference: ChEMBL document CHEMBL1201862, “PubChem BioAssay data set” (2004)
